Experimental data: patent publication US20150045328A1, “DISUBSTITUTED ARYL OXY DERIVATIVES AS SPHINGOSINE-1 PHOSPHATE RECEPTORS MODULATORS” (Allergan, Inc., priority 2013, published 2015)

Each molecule was assayed against T1, human S1P1 receptor (Homo sapiens, UniProt P21453) (assay: GTP γ35S binding assay for S1P1 activity). Conditions: activity potency, S1P1 receptor from GTP γ35S binding; membranes of cells stably expressing the S1P1 receptor.
T1 construct: expressed in transfected cells; membranes used
Format: biochemical
Method: Compounds were synthesized and tested for S1P1 activity using the GTP γ^35S binding assay. These compounds may be assessed for their ability to activate or block activation of the human S1P1 receptor in cells stably expressing the S1P1 receptor.
GTP γ^35S binding was measured in the medium containing (mM) HEPES 25, pH 7.4, MgCl2 10, NaCl 100, dithiothreitol 0.5, digitonin 0.003%, 0.2 nM GTP γ^35S, and 5 μg membrane protein in a volume of 150 μl. Test compounds were included in the concentration range from 0.08 to 5,000 nM unless indicated otherwise. Membranes were incubated with 100 μM 5′-adenylylimidodiphosphate for 30 min, and subsequently with 10 μM GDP for 10 min on ice. Drug solutions and membrane were mixed, and then reactions were initiated by adding GTP γ^35S and continued for 30 min at 25° C. Reaction mixtures were filtered over Whatman GF/B filters under vacuum, and washed three times with 3 mL of ice-cold buffer (HEPES 25, pH7.4, MgCl2 10 and NaCl 100). Filters were dried and mixed with scintillant, and counted for ^35S activity using a β-counter. Agonist-induced GTP γ^35S binding was obtained by subtracting that in the absence of agonist. Binding data were analyzed using a non-linear regression method. In case of antagonist assay, the reaction mixture contained 10 nM […] in the presence of test antagonist at concentrations ranging from 0.08 to 5000 nM.

T1 sequence (P21453 whole entry): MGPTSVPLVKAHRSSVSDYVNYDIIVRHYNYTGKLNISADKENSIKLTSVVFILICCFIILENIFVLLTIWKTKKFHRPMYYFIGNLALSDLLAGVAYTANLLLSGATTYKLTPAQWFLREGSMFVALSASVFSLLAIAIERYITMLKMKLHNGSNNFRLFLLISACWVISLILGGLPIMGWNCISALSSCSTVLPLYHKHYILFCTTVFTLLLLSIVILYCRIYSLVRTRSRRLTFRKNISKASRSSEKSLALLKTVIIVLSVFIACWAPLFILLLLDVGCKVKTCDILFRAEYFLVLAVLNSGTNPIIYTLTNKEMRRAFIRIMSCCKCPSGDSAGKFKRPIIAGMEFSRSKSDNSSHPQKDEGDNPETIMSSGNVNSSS

| EC50 [nM] | Compound |
| --- | --- |
| 5.18 | CCCCCC(CCCOc1ccc(CNCCCP(=O)(O)O)cc1)Cc1ccc(C)c(C)c1 (centres unmarked) [Compound 1, {3-[(4-{[4-(3,4-Dimethylbenzyl)nonyl]oxy}benzyl)amino]propyl}phosphonic acid] |
| 12.9 | CCCCC(CCCOc1ccc(CNCCCP(=O)(O)O)cc1)Cc1ccc(C)c(C)c1 (centres unmarked) [Compound 2, {3-[(4-{[4-(3,4-Dimethylbenzyl)octyl]oxy}benzyl)amino]propyl}phosphonic acid] |
| 5 | CCCCC(CCCOc1ccc(CNCCC(=O)O)cc1)Cc1ccc(C)c(C)c1 (centres unmarked) [Compound 3, 3-[(4-{[4-(3,4-Dimethylbenzyl)octyl]oxy}benzyl)amino]propanoic acid] |
| 120 | CCCC(CCCOc1ccc(CNCCCP(=O)(O)O)cc1)Cc1ccc(C)c(C)c1 (centres unmarked) [Compound 4, {3-[(4-{[4-(3,4-Dimethylbenzyl)heptyl]oxy}benzyl)amino]propyl}phosphonic acid] |
| 4.68 | CCCC(CCCOc1ccc(CNCCC(=O)O)cc1)Cc1ccc(C)c(C)c1 (centres unmarked) [Compound 5, 3-[(4-{[4-(3,4-Dimethylbenzyl)heptyl]oxy}benzyl)amino]propanoic acid] |
| 21.4 | CCC(CCCOc1ccc(CNCCCP(=O)(O)O)cc1)Cc1ccc(C)c(C)c1 (centres unmarked) [Compound 6, {3-[(4-{[4-(3,4-Dimethylbenzyl)hexyl]oxy}benzyl)amino]propyl}phosphonic acid] |
| 11.4 | CCC(CCCOc1ccc(CNCCC(=O)O)cc1)Cc1ccc(C)c(C)c1 (centres unmarked) [Compound 7, 3-[(4-{[4-(3,4-Dimethylbenzyl)hexyl]oxy}benzyl)amino]propanoic acid] |
| 7.46 | CCCCCC(CCCOc1ccc(CNCCC(=O)O)cc1)Cc1ccc(C)c(C)c1 (centres unmarked) [Compound 10, 3-[(4-{[4-(3,4-Dimethylbenzyl)nonyl]oxy}benzyl)amino]propanoic acid] |
| 18.9 | CCCCC(CCCOc1c(C)cc(CNCCCP(=O)(O)O)cc1C)Cc1ccc(C)c(C)c1 (centres unmarked) [Compound 11, {3-[(4-{[4-(3,4-Dimethylbenzyl)octyl]oxy}-3,5-dimethylbenzyl)amino]propyl}phosphonic acid] |
| 9.84 | CCCCC(CCCOc1c(C)cc(CNCCC(=O)O)cc1C)Cc1ccc(C)c(C)c1 (centres unmarked) [Compound 12, 3-[(4-{[4-(3,4-dimethylbenzyl)octyl]oxy}-3,5-dimethylbenzyl)amino]propanoic acid] |
| 6.54 | CCCCC(CCCOc1ccc(CNCCCP(=O)(O)O)cc1C)Cc1ccc(C)c(C)c1 (centres unmarked) [Compound 13, {3-[(4-{[4-(3,4-Dimethylbenzyl)octyl]oxy}-3-methylbenzyl)amino]propyl}phosphonic acid] |
| 6.02 | CCCCC(CCCOc1ccc(CNCCC(=O)O)cc1C)Cc1ccc(C)c(C)c1 (centres unmarked) [Compound 14, 3-[(4-{[4-(3,4-Dimethylbenzyl)octyl]oxy}-3-methylbenzyl)amino]propanoic acid] |
| 2.29 | CCCCC(CCCOc1ccc(CNCCCP(=O)(O)O)cc1Br)Cc1ccc(C)c(C)c1 (centres unmarked) [Compound 15, {3-[(3-Bromo-4-{[4-(3,4-dimethylbenzyl)octyl]oxy}benzyl)amino]propyl}phosphonic acid] |
| 4.19 | CCCCC(CCCOc1ccc(CNCCC(=O)O)cc1Br)Cc1ccc(C)c(C)c1 (centres unmarked) [Compound 16, 3-[(3-Bromo-4-{[4-(3,4-dimethylbenzyl)octyl]oxy}benzyl)amino]propanoic acid] |
| 1.34 | CCCCC(CCCOc1ccc(CNCCCP(=O)(O)O)cc1Cl)Cc1ccc(C)c(C)c1 (centres unmarked) [Compound 17, {3-[(3-Chloro-4-{[4-(3,4-dimethylbenzyl)octyl]oxy}benzyl)amino]propyl}phosphonic acid] |
| 1.25 | CCCCC(CCCOc1ccc(CNCCC(=O)O)cc1Cl)Cc1ccc(C)c(C)c1 (centres unmarked) [Compound 18, 3-[(3-Chloro-4-{[4-(3,4-dimethylbenzyl)octyl]oxy}benzyl)amino]propanoic acid] |
| 0.33 | CCCCC(CCCOc1c(F)cc(CNCCCP(=O)(O)O)cc1OC)Cc1ccc(C)c(C)c1 (centres unmarked) [Compound 19, {3-[(4-{[4-(3,4-dimethylbenzyl)octyl]oxy}-3-fluoro-5-methoxybenzyl)amino]propyl}phosphonic acid] |
| 2.7 | CCCCC(CCCOc1c(F)cc(CNCCC(=O)O)cc1OC)Cc1ccc(C)c(C)c1 (centres unmarked) [Compound 20, 3-[(4-{[4-(3,4-Dimethylbenzyl)octyl]oxy}-3-fluoro-5-methoxybenzyl)amino]propanoic acid] |
| 2.35 | CCCCC(CCCOc1ccc(CNCCCP(=O)(O)O)cc1F)Cc1ccc(C)c(C)c1 (centres unmarked) [Compound 21, {3-[(4-{[4-(3,4-Dimethylbenzyl)octyl]oxy}-3-fluorobenzyl)amino]propyl}phosphonic acid] |
| 15.7 | CCCCC(CCCOc1ccc(CNCCC(=O)O)cc1F)Cc1ccc(C)c(C)c1 (centres unmarked) [Compound 22, 3-[(4-{[4-(3,4-Dimethylbenzyl)octyl]oxy}-3-fluorobenzyl)amino]propanoic acid] |
| 11.9 | CCCCCC(CCCOc1c(C)cc(CNCCCP(=O)(O)O)cc1C)Cc1ccc(C)c(C)c1 (centres unmarked) [Compound 23, {3-[(4-{[4-(3,4-Dimethylbenzyl)nonyl]oxy}-3,5-dimethylbenzyl)amino]propyl}phosphonic acid] |
| 4.83 | CCCCCC(CCCOc1ccc(CNCCCP(=O)(O)O)cc1Cl)Cc1ccc(C)c(C)c1 (centres unmarked) [Compound 25, {3-[(3-Chloro-4-{[4-(3,4-dimethylbenzyl)nonyl]oxy}benzyl)amino]propyl}phosphonic acid] |
| 11.8 | CCCCCC(CCCOc1ccc(CNCCC(=O)O)cc1Cl)Cc1ccc(C)c(C)c1 (centres unmarked) [Compound 26, 3-[(3-Chloro-4-{[4-(3,4-dimethylbenzyl)nonyl]oxy}benzyl)amino]propanoic acid] |
| 10.9 | CCCC(CCCOc1ccc(CNCCCP(=O)(O)O)cc1Cl)Cc1ccc(C)c(C)c1 (centres unmarked) [Compound 27, {3-[(3-chloro-4-{[4-(3,4-dimethylbenzyl)heptyl]oxy}benzyl)amino]propyl}phosphonic acid] |
| 54 | CCCC(CCCOc1ccc(CNCCC(=O)O)cc1Cl)Cc1ccc(C)c(C)c1 (centres unmarked) [Compound 28, 3-[(3-Chloro-4-{[4-(3,4-dimethylbenzyl)heptyl]oxy}benzyl)amino]propanoic acid] |
| 328 | CCCC(CCCOc1c(C)cc(CNCCCP(=O)(O)O)cc1C)Cc1ccc(C)c(C)c1 (centres unmarked) [Compound 29, {3-[(4-{[4-(3,4-Dimethylbenzyl)heptyl]oxy}-3,5-dimethylbenzyl)amino]propyl}phosphonic acid] |
| 27.1 | CCCC(CCCOc1c(C)cc(CNCCC(=O)O)cc1C)Cc1ccc(C)c(C)c1 (centres unmarked) [Compound 30, 3-[(4-{[4-(3,4-Dimethylbenzyl)heptyl]oxy}-3,5-dimethylbenzyl)amino]propanoic acid] |
| 7.89 | CCCC(CCCOc1ccc(CNCCCP(=O)(O)O)cc1C)Cc1ccc(C)c(C)c1 (centres unmarked) [Compound 31, {3-[(4-{[4-(3,4-Dimethylbenzyl)heptyl]oxy}-3-methylbenzyl)amino]propyl}phosphonic acid] |
| 35.2 | CCCC(CCCOc1ccc(CNCCC(=O)O)cc1C)Cc1ccc(C)c(C)c1 (centres unmarked) [Compound 32, 3-[(4-{[4-(3,4-Dimethylbenzyl)heptyl]oxy}-3-methylbenzyl)amino]propanoic acid] |
